We go through four molecules from ChEMBL document CHEMBL1159266, “Antineoplastic agents, 325. Isolation and structure of the human cancer cell growth inhibitory cyclic octapeptides phakellistatin 10 and 11 from Phakellia sp” (1995).

The term GI50 denotes the concentration at which growth is held to half of that of the control. The low end stands for more potent growth inhibition, the high end for less potent growth inhibition.

Format in all cases: functional
One experiment has as its system L1210. Nature of the experiment: Cytotoxicity against mouse L1210 cells. The following applies: read-out: ED50 (the source's name).
Experiment [1] in a line: Growth inhibition of human NCI60 cells.
The test system of another experiment is P388. Nature of the experiment: Cytotoxicity against mouse P388 cells. Particulars: read-out: ED50 (the source's name).

Molecules are shown by their SMILES. In brackets after ≈: the same amount, converted by molar mass. Where a SMILES comes first, the peptide text is derived from it.

Regarding `CC(C)[C@@H]1NC(=O)[C@H](CCCCN)NC(=O)[C@H](Cc2c[nH]c3ccccc23)NC(=O)[C@H](Cc2ccccc2)NC(=O)[C@H](CC(=O)O)NC(=O)[C@H](Cc2ccc(O)cc2)NC(=O)[C@@H]2CCCN2C(=O)[C@H](Cc2ccc(O)cc2)NC1=O` [HYMENAMIDE J] (cyclo(DFWKVYPY)), the EC50 in the experiment with L1210 worked out at 2.6 µg/mL (≈ 2.37 µM).

For the molecule `CC(C)C[C@@H]1NC(=O)[C@@H]2CCCN2C(=O)[C@H](C(C)C)NC(=O)[C@H](Cc2c[nH]c3ccccc23)NC(=O)[C@@H]2CCCN2C(=O)[C@H](CC(C)C)NC(=O)[C@@H]2CCCN2C(=O)[C@H]([C@@H](C)O)NC1=O` [HYMENAMIDE H] (cyclo(LPWVPLTP)), in the experiment with L1210, the EC50 amounted to 6.3 µg/mL (≈ 6.97 µM).

With `CC[C@H](C)[C@@H]1NC(=O)[C@@H]2CCCN2C(=O)[C@H]([C@@H](C)O)NC(=O)[C@H](CC(C)C)NC(=O)[C@@H]2CCCN2C(=O)[C@H](C(C)C)NC(=O)[C@H](Cc2ccc(O)cc2)NC(=O)[C@@H]2CCCN2C1=O` [PHAKELLISTATIN 10] (cyclo(IPYVPLTP)), in experiment [1], it took 790 nM to inhibit growth by half (GI50). The EC50 with P388 is 2.1 µg/mL (≈ 2.38 µM).

On to `CC[C@H](C)[C@@H]1NC(=O)[C@H](Cc2ccccc2)NC(=O)[C@@H]2CCCN2C(=O)[C@H](Cc2ccccc2)NC(=O)[C@@H]2CCCN2C(=O)[C@H](CCC(N)=O)NC(=O)[C@@H]2CCCN2C(=O)[C@H](Cc2ccccc2)NC1=O` [PHAKELLI STATIN 11] (cyclo(FIFPQPFP)), for which the GI50 in experiment [1] is 132 nM. In addition, the EC50 with P388 was determined as 0.2 µg/mL (≈ 0.205 µM).
